Measurements from ChEMBL document CHEMBL5604063, “ASAP - DENV-2 NS2B-NS3 protease fluorescence dose response” (2024).
Where “and” joins values, the source holds several entries; their conditions need not be identical. Identical values can stand only once.

Key:
Genome polyprotein [1] = target: T1, Genome polyprotein (dengue virus type 2, UniProt P29990); type: functional, Thailand/16681/1984
Genome polyprotein [2] = target: T1, Genome polyprotein; type: functional, Thailand/16681/1984; remark: listed apart in the source

T1 sequence (P29990 1346-1475 limits assumed): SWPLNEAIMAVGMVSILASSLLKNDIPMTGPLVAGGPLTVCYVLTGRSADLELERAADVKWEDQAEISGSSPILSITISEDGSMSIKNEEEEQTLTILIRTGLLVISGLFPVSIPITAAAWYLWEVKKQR
T1 sequence (P29990 1476-2093 limits assumed): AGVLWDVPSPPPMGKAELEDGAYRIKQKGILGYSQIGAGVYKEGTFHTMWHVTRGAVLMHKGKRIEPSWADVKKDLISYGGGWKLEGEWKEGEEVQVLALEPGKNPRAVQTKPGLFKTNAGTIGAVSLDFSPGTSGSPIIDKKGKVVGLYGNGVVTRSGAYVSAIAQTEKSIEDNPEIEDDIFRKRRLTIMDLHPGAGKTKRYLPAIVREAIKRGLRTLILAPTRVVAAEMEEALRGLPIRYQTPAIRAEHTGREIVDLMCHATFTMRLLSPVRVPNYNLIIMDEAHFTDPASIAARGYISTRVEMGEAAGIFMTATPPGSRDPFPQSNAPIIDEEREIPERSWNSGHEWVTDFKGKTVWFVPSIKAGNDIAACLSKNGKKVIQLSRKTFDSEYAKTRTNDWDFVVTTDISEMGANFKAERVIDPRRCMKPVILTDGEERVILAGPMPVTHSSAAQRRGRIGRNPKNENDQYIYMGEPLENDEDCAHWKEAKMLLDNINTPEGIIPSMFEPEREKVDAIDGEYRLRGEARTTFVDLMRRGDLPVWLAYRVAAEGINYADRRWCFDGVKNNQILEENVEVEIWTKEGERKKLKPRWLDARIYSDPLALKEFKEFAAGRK

Compound	IC50 (Genome polyprotein [1])	IC50 (Genome polyprotein [2])
O=S(=O)(Nc1cccc(-c2nnn[nH]2)c1)c1cc(Cl)cc2c1OCC2	> 100 µM	> 99.5 µM
O=C(O)c1cc2cc(-c3cc(Cl)cc4ncccc34)ccc2[nH]1	50.9 µM	41.5 µM
Cc1csc(CO[C@H]2CCN(C(=O)Nc3ccc4c(c3)CNC4)C2)n1	> 100 µM	> 99.5 µM
O=C(Nc1ccc2c(c1)CNC2)c1cc(F)cc2[nH]c(-c3cccc(F)c3)nc12	44.1 µM and 36 µM	4.86 µM and 4.62 µM
CCc1nc2c(C(=O)Nc3ccc4c(c3)CNC4)cc(Br)cc2[nH]1	25.4 µM and > 100 µM	24.7 µM
CCCCNC(=O)[C@H](Nc1ccc2c(c1)CNC2)c1cc(Cl)cc(C2CC2)c1	> 100 µM	> 99.5 µM
O=C(Nc1cc(Cl)cc(C(=O)Nc2ccc(N3CCCNCC3)cc2)c1)OCc1ccccc1	> 100 µM	27.6 µM
CCn1c(=O)c(N2CC[C@H](CO)C2)nc2ccc(C(N)=O)cc21	> 100 µM	81.7 µM
NCc1ccc2c(c1)[C@H]1OCCC[C@H]1[C@H](c1cc(Cl)cc(NC(=O)OCc3ccccc3)c1)N2	33.9 µM and 45.8 µM	17.6 µM and 15.9 µM
CCn1ncc2c(C(=O)Nc3cccc(CN)c3)cc(C)nc21	> 100 µM	> 99.5 µM
O=C(Nc1ccc2c(c1)CNC2)c1ccc2[nH]cnc2c1	> 100 µM	> 99.5 µM
COc1cc(C(=O)Nc2cccc(CN)c2)cc2cn(C)nc12	> 100 µM	> 99.5 µM
NC[C@]12CC[C@](NC(=O)c3cc(Cl)cc(NC(=O)OCc4ccccc4)c3)(CO1)C2	> 100 µM	> 99.5 µM
N[C@H]1CCCc2ccc(NC(=O)c3cc(Cl)cc4[nH]ncc34)cc21	> 100 µM	> 99.5 µM
NC12CCC(CNC(=O)c3cc(Cl)cc(NC(=O)OCc4ccccc4)c3)(CC1)OC2	> 100 µM	> 99.5 µM
N#Cc1cccc(C[C@H](O)c2cc(Cl)cc(NC(=O)OCc3ccccc3)c2)c1	> 100 µM	> 99.5 µM
CC(C)NC(=O)[C@H](Nc1ccc2c(c1)CNC2)c1cccc2cn[nH]c12	> 100 µM	> 99.5 µM
C[C@H]1C[C@@H](C(=O)Nc2cccc(CN)c2)CC(=O)N1	> 100 µM	> 99.5 µM
Nc1nccc(C(=O)Nc2ccc3c(c2)CNC3)n1	> 100 µM	> 99.5 µM
NC[C@H]1OCCc2sc(C(=O)Nc3cc(-c4cccnc4)ccn3)cc21	> 100 µM	> 99.5 µM
NCc1cccc(NC(=O)[C@H](NC(=O)OCc2ccccc2)c2cccc(-c3ccnc(N)c3)c2)c1	> 100 µM	> 99.5 µM
O=C(Nc1cc(Cl)cc(CNc2cccc(-c3nn[nH]n3)c2)c1)OCc1ccccc1	8.36 µM and 5.15 µM	11.6 µM
Cc1cc(-c2ccc([C@@H](NC(=O)OCc3ccccc3)C(=O)Nc3cccc(CN)c3)cc2)cs1	30.5 µM and 16.5 µM and 28.3 µM and 18.6 µM and 11.2 µM and 15.5 µM	4.01 µM

Compound	IC50 (Genome polyprotein [1])	IC50 (Genome polyprotein [2])
Cc1ccc(OCc2ccccc2Cl)c(C(=O)Nc2cccc(CN)c2)c1	> 100 µM	99.5 µM
NCc1cccc(NC(=O)c2cc(NC(=O)OCc3ccccc3)cc3c2OCCO3)c1	> 100 µM	> 99.5 µM
C[C@H](N)c1cccc(NC(=O)c2cc(Cl)cc(NC(=O)OCc3ccccc3)c2)c1	> 100 µM	68.6 µM
CN(C)CCc1ccc(NC(=O)c2cc(Cl)cc(NC(=O)OCc3ccccc3)c2)cc1	> 100 µM	> 99.5 µM
Cc1c(C(=O)Nc2cc(Br)c3c(c2)COC3)cc(C2CC2)n1C	> 100 µM	> 99.5 µM
O=C(Nc1ccc2c(c1)CNC2)c1cc(Cl)cc2[nH]c(-c3c[nH]c(=O)c(Br)c3)nc12	13.7 µM	12.5 µM
N#C[C@]1(Nc2cccc(-c3nn[nH]n3)c2)C(=O)Nc2ccc(Cl)cc21	> 100 µM	> 99.5 µM
N[C@H]1CCc2ccc(NC(=O)c3cc(Cl)cc(NC(=O)OCc4ccccc4)c3)cc21	> 100 µM	91.2 µM
CNC(=O)[C@H](Nc1ccc2c(c1)CNC2)c1cccc2[nH]c(C(F)(F)F)nc12	> 100 µM	> 99.5 µM
Cc1cc(=O)[nH]c(-c2cccc(NC(=O)c3cc(C4CC4)n(C)c3C)c2)n1	> 100 µM	> 99.5 µM
CC1=C(c2cc(NC(=O)c3cc(Cl)cc4[nH]ncc34)cc3c2CNC3)CCC1=O	> 100 µM	> 99.5 µM
Cc1cc(C(=O)Nc2cccc(CN)c2)c2nc(C)n(C)c2n1	> 100 µM	> 99.5 µM
O=C(Nc1ccc2c(c1)OCCNC2)c1cc(Cl)cc2[nH]ncc12	> 100 µM	> 99.5 µM
O=C(O)c1cc2cc(-c3cc(Cl)c4[nH]c(=O)oc4c3)ccc2[nH]1	63.2 µM	47.3 µM
NCc1cccc(-c2csc3cc(C(=O)Nc4ccc5c(c4)CNC5)ccc23)c1	> 100 µM	22.4 µM and 14.7 µM
O=C1OCc2ccc(NC(=O)c3cc(F)cc4c3CCNC4)cc21	> 100 µM	> 99.5 µM
NCc1nc(CNC(=O)c2cc(Cl)cc(NC(=O)OCc3ccccc3)c2)cs1	> 100 µM	> 99.5 µM
O=C(Nc1ccc2c(c1)CNC2)c1cc(Cl)cc2c1cnn2C1CCOCC1	> 100 µM	> 99.5 µM
NCc1cccc(NC(=O)[C@@H](NC(=O)OCc2ccccc2)c2ccc(OCc3ccccn3)cc2)c1	> 100 µM	> 99.5 µM
CSc1cc(F)c(C(=O)Nc2cccc(CN)c2)cc1NC(=O)OCc1ccccc1	> 100 µM	84.2 µM
Cc1cc(C(=O)Nc2cccc(CN)c2)nc2c(C(C)C)cnn12	> 100 µM	> 99.5 µM
N#C[C@H](Nc1ccc(-c2nn[nH]n2)cc1)c1cc(Cl)cc(NC(=O)OCc2ccccc2)c1	7.23 µM and 13 µM	10.7 µM
Cn1nc(CNc2ccc3c(c2)CNC3)cc1C1CC1	> 100 µM	> 99.5 µM

Compound	IC50 (Genome polyprotein [1])	IC50 (Genome polyprotein [2])
NCc1cccc(NC(=O)c2cc(CO)cc(NC(=O)OCc3ccccc3)c2)c1	> 100 µM	> 99.5 µM
O=C(Nc1ccc2c(c1)CNC2)c1cc(Cl)ccc1-n1cnnn1	> 100 µM	> 99.5 µM
O=C(Nc1cc(Cl)cc(-c2cnn(Cc3ccc(C(=O)O)cc3)c2)c1)OCc1ccccc1	8.1 µM	18.2 µM
Cn1ncc2c(C(=O)Nc3ccc4c(c3)CNC4)cc(C3CC3)nc21	> 100 µM	> 99.5 µM
Cc1c(C(=O)Nc2ccnc(O[C@H]3CCOC3)c2)cc(C2CC2)n1C	> 100 µM	> 99.5 µM
O=C(Nc1ccc(C2CCNCC2)cc1)c1cc(Cl)cc2[nH]ncc12	> 100 µM	> 99.5 µM
Cn1nc(C(=O)Nc2ccc3c(c2)CNC3)c2cc(Br)ccc21	> 100 µM	89.7 µM
NCc1cccc(NC(=O)[C@@H]2C[C@@H](O)CN2C(=O)C23CC4CC(CC(C4)C2)C3)c1	> 100 µM	> 99.5 µM
NCCCCc1ccc(NC(=O)c2cc(Cl)cc3[nH]ncc23)cc1	> 100 µM	> 99.5 µM
O=C(Nc1ccc2c(c1)CN[C@H]2c1ccccc1)c1cc(F)cc2[nH]ncc12	65.9 µM	> 99.5 µM
Cc1nn(CCO)c(C(F)F)c1C(=O)Nc1cccc(CN)c1	> 100 µM	> 99.5 µM
NCCCn1c(C2CC2)cc(C(=O)Nc2cc([C@H]3CCOC3)ccn2)c1C1CC1	> 100 µM	> 99.5 µM
N#CCCNC(=O)[C@H](Nc1ccc2c(c1)CNC2)c1cc(Cl)cc(C2CC2)c1	> 100 µM	> 99.5 µM
CS(=O)(=O)Nc1ccc(Cl)cc1C(=O)Nc1cccc(CN)c1	> 100 µM	> 99.5 µM
Cc1cc(NC(=O)OCc2ccccc2)cc(C(=O)Nc2cccc(CN)c2)c1	> 100 µM	> 99.5 µM
Cc1c[nH]c2ncnc(C(=O)Nc3ccc4c(c3)CNC4)c12	> 100 µM	> 99.5 µM
O=C(NCC(F)F)[C@H](Nc1ccc2c(c1)CNC2)c1cccc(Cl)c1	> 100 µM	> 99.5 µM
NC(=O)c1cn(C2CCCC2)nc1NC(=O)c1cccc2c1CC(=O)N2	> 100 µM	> 99.5 µM
C[C@H]1Oc2c(cccc2C(=O)Nc2ccc3c(c2)CNC3)NC1=O	90.4 µM	89.3 µM
O=C(Nc1cc(Cl)cc(C(=O)Nc2cccc(C(=O)O)c2)c1)OCc1ccccc1	29.1 µM and 25.3 µM	42.7 µM
O=C(Nc1ccc([C@H]2CCNC2)cc1)c1cc(Cl)cc2[nH]ncc12	97.3 µM	87.8 µM
O=C(Nc1ccc2c(c1)C(=O)OC2)c1cccc(CC2CNC2)c1	> 100 µM	> 99.5 µM
